In patent US9862713B2, “Substituted bicyclic heteroaryl compounds as RXR agonists” (CONNEXIOS LIFE SCIENCES PVT. LTD., priority 2014, dated 2018):

Test system: hRXR α, β, or γ
Test: Transactivation assay (RARE-Luc dual luciferase reporter in HEK-293 cells), activity relative to LG268
Assay type: cell-based, human
Details: compound at 1 µM, 24 h; luciferase activity expressed relative to LG268
Description: HEK-293 cells (ATCC) were seeded one day prior to transfection. For assessing EC50 of activation of RXR isoforms 2 μg of hRXR α, β, or γ (OriGENE, USA) over-expressing vector, 1 μg of plasmid expressing firefly luciferase under RARE element (RARE-Luc) and 25 ng of renilla luciferase vector (QIAGEN, USA) were co-transfected using lipofectamine reagent. Post 24 h of transfection, cells were treated with different concentrations of RXR agonists (100 nM, 300 nM and 1 uM) for 24 h followed by estimation of luciferase activity using Dual Luciferase Reporter Assay System (Promega). Luciferase activity was normalized to that of renilla luciferase. The activities of the RXR compounds were expressed relative to LG268, a known RXR agonist.

**Q.** For `C=C(c1ccc(C(=O)O)cc1)c1sc2c(c1C)C(C)(C)CCC2(C)C` [Compound 1, 4-[1-(3,4,4,7,7-Pentamethyl-4,5,6,7-tetrahydro-1-benzothiophen-2-yl)ethenyl]benzoic acid], which “Activity at 1 µM” value is on record?
**A.** Its value is “***** (>1)”.

**Q.** `Cc1c(C2(c3ccc(C(=O)O)cc3)CC2)sc2c1C(C)(C)CCC2(C)C` [Compound 2, 4-[1-(3,4,4,7,7-pentamethyl-4,5,6,7-tetrahydro-1-benzothiophen-2-yl)cyclopropyl]benzoic acid] was tested. Which “Activity at 1 µM” value did it give?
**A.** Its value is “***** (>1)”.

**Q.** For `Cc1c(/C(=N/O)c2ccc(C(=O)O)cc2)sc2c1C(C)(C)CCC2(C)C` [Compound 3, 4-[(E)-(Hydroxyimino) (3,4,4,7,7-pentamethyl-4,5,6,7-tetrahydro-1-benzothiophen-2-yl)methyl]benzoic acid], which “Activity at 1 µM” value is on record?
**A.** The value was “***** (>1)”.

**Q.** How did the “Activity at 1 µM” value turn out when `CO/N=C(\c1ccc(C(=O)O)cc1)c1sc2c(c1C)C(C)(C)CCC2(C)C` [Compound 4, 4-[(E,Z)-(Methoxyimino) (3,4,4,7,7-pentamethyl-4,5,6,7-tetrahydro-1-benzothiophen-2-yl)methyl]benzoic acid] was run?
**A.** The value was “**** (>0.9 to <1)”.

**Q.** How did the “Activity at 1 µM” value turn out when `Cc1c(C(=O)c2ccc(C(=O)O)cn2)sc2c1C(C)(C)CCC2(C)C` [Compound 5, 6-[(3,4,4,7,7-Pentamethyl-4,5,6,7-tetrahydro-1-benzothiophen-2-yl)carbonyl]pyridine-3-carboxylic acid] was run?
**A.** The value was “** (>0.7 and <0.8)”.

**Q.** For `C=C(c1ccc(C(=O)O)cn1)c1sc2c(c1C)C(C)(C)CCC2(C)C` [Compound 6, 6-[1-(3,4,4,7,7-Pentamethyl-4,5,6,7-tetrahydro-1-benzothiophen-2-yl)ethenyl]pyridine-3-carboxylic acid], which “Activity at 1 µM” value is on record?
**A.** The value was “*** (>0.8 and <0.9)”.

**Q.** `Cc1c(C2(c3ccc(C(=O)O)cn3)CC2)sc2c1C(C)(C)CCC2(C)C` [Compound 7, 6-[1-(3,4,4,7,7-Pentamethyl-4,5,6,7-tetrahydro-1-benzothiophen-2-yl)cyclopropyl]pyridine-3-carboxylic acid] was tested. Which “Activity at 1 µM” value did it give?
**A.** Its value is “***** (>1)”.

**Q.** `Cc1c(N(C)c2ccc(C(=O)O)cc2)sc2c1C(C)(C)CCC2(C)C` [Compound 8, 4-[Methyl(3,4,4,7,7-pentamethyl-4,5,6,7-tetrahydro-1-benzothiophen-2-yl)amino]benzoic acid] was tested. Which “Activity at 1 µM” value did it give?
**A.** Its value is “***** (>1)”.

**Q.** How did the “Activity at 1 µM” value turn out when `CCN(c1ccc(C(=O)O)cc1)c1sc2c(c1C)C(C)(C)CCC2(C)C` [Compound 9, 4-[Ethyl(3,4,4,7,7-pentamethyl-4,5,6,7-tetrahydro-1-benzothiophen-2-yl)amino]benzoic acid] was run?
**A.** The value was “*** (>0.8 and <0.9)”.

**Q.** For `Cc1c(N(c2ccc(C(=O)O)cc2)C2CC2)sc2c1C(C)(C)CCC2(C)C` [Compound 10, 4-[Cyclopropyl(3,4,4,7,7-pentamethyl-4,5,6,7-tetrahydro-1-benzothiophen-2-yl)amino]benzoic acid], which “Activity at 1 µM” value is on record?
**A.** Its value is “***** (>1)”.

**Q.** For `Cc1c(N(CC2CC2)c2ccc(C(=O)O)cc2)sc2c1C(C)(C)CCC2(C)C` [Compound 11, 4-[(Cyclopropylmethyl) (3,4,4,7,7-pentamethyl-4,5,6,7-tetrahydro-1-benzothiophen-2-yl)amino]benzoic acid], which “Activity at 1 µM” value is on record?
**A.** The value was “**** (>0.9 to <1)”.

**Q.** For `Cc1c(N(c2ccc(C(=O)O)cc2)C(C)C)sc2c1C(C)(C)CCC2(C)C` [Compound 13, 4-[(3,4,4,7,7-Pentamethyl-4,5,6,7-tetrahydro-1-benzothiophen-2-yl) (propan-2-yl)amino]benzoic acid], which “Activity at 1 µM” value is on record?
**A.** The value was “** (>0.7 and <0.8)”.

**Q.** Which “Activity at 1 µM” value does the source give for `Cc1c(N(c2ccc(C(=O)O)cc2)S(C)(=O)=O)sc2c1C(C)(C)CCC2(C)C` [Compound 14, 4-[(Methylsulfonyl) (3,4,4,7,7-pentamethyl-4,5,6,7-tetrahydro-1-benzothiophen-2-yl)amino]benzoic acid] here?
**A.** The value was “**** (>0.9 to <1)”.

**Q.** How did the “Activity at 1 µM” value turn out when `COc1ccc(/C=C/C(=O)O)cc1-c1sc2c(c1C)C(C)(C)CCC2(C)C` [Compound 15, (2E)-3-[4-Methoxy-3-(3,4,4,7,7-pentamethyl-4,5,6,7-tetrahydro-1-benzothiophen-2-yl)phenyl]prop-2-enoic acid] was run?
**A.** Its value is “** (>0.7 and <0.8)”.

**Q.** `COc1ccc(C2CC2C(=O)O)cc1-c1sc2c(c1C)C(C)(C)CCC2(C)C` (centres unmarked) [Compound 16, 2-[4-Methoxy-3-(3,4,4,7,7-pentamethyl-4,5,6,7-tetrahydro-1-benzothiophen-2-yl)phenyl]cyclopropanecarboxylic acid] was tested. Which “Activity at 1 µM” value did it give?
**A.** The value was “* (<0.7)”.

**Q.** Which “Activity at 1 µM” value does the source give for `Cc1c(N(C)c2ccc(C(=O)O)cn2)sc2c1C(C)(C)CCC2(C)C` [Compound 17, 6-[Methyl(3,4,4,7,7-pentamethyl-4,5,6,7-tetrahydro-1-benzothiophen-2-yl)amino]pyridine-3-carboxylic acid] here?
**A.** The value was “***** (>1)”.

**Q.** For `CCN(c1ccc(C(=O)O)cn1)c1sc2c(c1C)C(C)(C)CCC2(C)C` [Compound 18, 6-[Ethyl(3,4,4,7,7-pentamethyl-4,5,6,7-tetrahydro-1-benzothiophen-2-yl)amino]pyridine-3-carboxylic acid], which “Activity at 1 µM” value is on record?
**A.** Its value is “***** (>1)”.

**Q.** Which “Activity at 1 µM” value does the source give for `Cc1c(N(c2ccc(C(=O)O)cn2)C2CC2)sc2c1C(C)(C)CCC2(C)C` [Compound 19, 6-[Cyclopropyl(3,4,4,7,7-pentamethyl-4,5,6,7-tetrahydro-1-benzothiophen-2-yl)amino]pyridine-3-carboxylic acid] here?
**A.** The value was “***** (>1)”.

**Q.** Which “Activity at 1 µM” value does the source give for `Cc1c(N(CC2CC2)c2ccc(C(=O)O)cn2)sc2c1C(C)(C)CCC2(C)C` [Compound 20, 6-[(Cyclopropylmethyl) (3,4,4,7,7-pentamethyl-4,5,6,7-tetrahydro-1-benzothiophen-2-yl)amino]pyridine-3-carboxylic acid] here?
**A.** Its value is “***** (>1)”.

**Q.** `Cc1c(N(c2ccc(C(=O)O)cn2)C(C)C)sc2c1C(C)(C)CCC2(C)C` [Compound 21, 6-[(3,4,4,7,7-Pentamethyl-4,5,6,7-tetrahydro-1-benzothiophen-2-yl) (propan-2-yl)amino]pyridine-3-carboxylic acid] was tested. Which “Activity at 1 µM” value did it give?
**A.** The value was “***** (>1)”.

**Q.** Which “Activity at 1 µM” value does the source give for `Cc1c(N(c2ccc(C(=O)O)cn2)S(C)(=O)=O)sc2c1C(C)(C)CCC2(C)C` [Compound 22, 6-[(Methylsulfonyl) (3,4,4,7,7-pentamethyl-4,5,6,7-tetrahydro-1-benzothiophen-2-yl)amino]pyridine-3-carboxylic acid] here?
**A.** Its value is “***** (>1)”.

**Q.** For `Cc1c(N(C)c2ncc(C(=O)O)cn2)sc2c1C(C)(C)CCC2(C)C` [Compound 23, 2-[Methyl(3,4,4,7,7-pentamethyl-4,5,6,7-tetrahydro-1-benzothiophen-2-yl)amino]pyrimidine-5-carboxylic acid], which “Activity at 1 µM” value is on record?
**A.** The value was “*** (>0.8 and <0.9)”.

**Q.** Which “Activity at 1 µM” value does the source give for `Cc1c(N(c2ncc(C(=O)O)cn2)C2CC2)sc2c1C(C)(C)CCC2(C)C` [Compound 24, 2-[Cyclopropyl(3,4,4,7,7-pentamethyl-4,5,6,7-tetrahydro-1-benzothiophen-2-yl)amino]pyrimidine-5-carboxylic acid] here?
**A.** The value was “*** (>0.8 and <0.9)”.

**Q.** For `Cc1c(NC(=O)c2ccc(C(=O)O)cc2)sc2c1C(C)(C)CCC2(C)C` [Compound 25, 4-[(3,4,4,7,7-Pentamethyl-4,5,6,7-tetrahydro-1-benzothiophen-2-yl)carbamoyl]benzoic acid], which “Activity at 1 µM” value is on record?
**A.** Its value is “* (<0.7)”.

**Q.** For `Cc1c(N(C)c2ccc(C(=O)O)cn2)sc2c1C(C)(C)CCC2` [Compound 26, 6-[Methyl(3,4,4-trimethyl-4,5,6,7-tetrahydro-1-benzothiophen-2-yl)amino]pyridine-3-carboxylic acid], which “Activity at 1 µM” value is on record?
**A.** The value was “* (<0.7)”.

**Q.** How did the “Activity at 1 µM” value turn out when `CCN(c1ccc(C(=O)O)cc1)c1cc2c(s1)C(C)(C)CCC2(C)C` [Compound 27, 4-[Ethyl(4,4,7,7-tetramethyl-4,5,6,7-tetrahydro-1-benzothiophen-2-yl)amino]benzoic acid] was run?
**A.** The value was “***** (>1)”.

**Q.** Which “Activity at 1 µM” value does the source give for `Cc1c(-n2nnc3cc(C(=O)O)ccc32)sc2c1C(C)(C)CCC2(C)C` [Compound 28, 1-(3,4,4,7,7-Pentamethyl-4,5,6,7-tetrahydro-1-benzothiophen-2-yl)-1H-benzotriazole-5-carboxylic acid] here?
**A.** Its value is “* (<0.7)”.

**Q.** How did the “Activity at 1 µM” value turn out when `Cc1c(/C=C/c2ccc(C(=O)O)cc2)sc2c1C(C)(C)CCC2(C)C` [Compound 29, 4-[(E)-2-(3,4,4,7,7-Pentamethyl-4,5,6,7-tetrahydro-1-benzothiophen-2-yl)ethenyl]benzoic acid] was run?
**A.** Its value is “***** (>1)”.

**Q.** How did the “Activity at 1 µM” value turn out when `Cc1c(/C=C\c2ccc(C(=O)O)cc2)sc2c1C(C)(C)CCC2(C)C` [Compound 30, 4-[(Z)-2-(3,4,4,7,7-Pentamethyl-4,5,6,7-tetrahydro-1-benzothiophen-2-yl)ethenyl]benzoic acid] was run?
**A.** Its value is “***** (>1)”.

**Q.** With `Cc1c(C2CC2c2ccc(C(=O)O)cc2)sc2c1C(C)(C)CCC2(C)C` (centres unmarked) [Compound 31, 4-[2-(3,4,4,7,7-Pentamethyl-4,5,6,7-tetrahydro-1-benzothiophen-2-yl)cyclopropyl]benzoic acid] as the compound, how does the “Activity at 1 µM” value read?
**A.** Its value is “** (>0.7 and <0.8)”.

**Q.** Which “Activity at 1 µM” value does the source give for `CCn1c(-c2ccc(C(=O)O)cc2)ccc1-c1sc2c(c1C)C(C)(C)CCC2(C)C` [Compound 32, 4-[1-Ethyl-5-(3,4,4,7,7-pentamethyl-4,5,6,7-tetrahydro-1-benzothiophen-2-yl)-1H-pyrrol-2-yl]benzoic acid] here?
**A.** Its value is “* (<0.7)”.

**Q.** For `CN(c1ccc(C(=O)O)cc1)c1nc2c(s1)C(C)(C)CCC2(C)C` [Compound 33, 4-[Methyl(4,4,7,7-tetramethyl-4,5,6,7-tetrahydro-1,3-benzothiazol-2-yl)amino]benzoic acid], which “Activity at 1 µM” value is on record?
**A.** Its value is “*** (>0.8 and <0.9)”.
